# Values quoted from earlier work, collected in patent US20150250887A1, “METHOD OF PREPARING RESIN TINCTURES” (JALEVA PHARMACEUTICALS, LLC, priority 2012, published 2015).
# Read-outs that look alike come from different tables or passages of the source.
SMILES,log D (pH about 7.4),also measured
Cc1nccn1CC1CCc2c(c3ccccc3n2C)C1=O (stereo not shown) [ondansetron],1.2,–
C[C@]12CC[C@H]3[C@@H](CCC4=CC(=O)CC[C@@]43C)[C@@H]1CC[C@@H]2O [testosterone],–,log D (pH 7.4): 3.18
O=C(O)Cc1ccccc1Nc1c(Cl)cccc1Cl [diclofenac],1.44,–
CN1CCCC1c1cccnc1 (stereo not shown) [nicotine],–,log D (pH 7.4): −0.62
CCCc1nc(C)c2c(=O)[nH]c(-c3cc(S(=O)(=O)N4CCN(CC)CC4)ccc3OCC)nn12 [vardenafil],3.71,–
CC(=O)O.CC(=O)O.NC(=N\CCCCCC/N=C(N)/N=C(\N)Nc1ccc(Cl)cc1)/N=C(\N)Nc1ccc(Cl)cc1 [chlorhexidine acetate],–,skin irritant properties (skin): strong skin irritant
CC1=C(/C=C/C(C)=C/C=C/C(C)=C/C(=O)O)C(C)(C)CCC1 [tretinoin],4.19,–
CNS(=O)(=O)CCc1ccc2[nH]cc(C3CCN(C)CC3)c2c1 [naratriptan],−0.85,–
N=C(NCCCCCCNC(=N)NC(=N)Nc1ccc(Cl)cc1)NC(=N)Nc1ccc(Cl)cc1.O=C(O)[C@H](O)[C@@H](O)[C@H](O)[C@H](O)CO.O=C(O)[C@H](O)[C@@H](O)[C@H](O)[C@H](O)CO [chlorhexidine gluconate],–,skin irritant properties (skin): does not exhibit as strong irritant properties
CCCc1nn(C)c2c(=O)[nH]c(-c3cc(S(=O)(=O)N4CCN(C)CC4)ccc3OCC)nc12 [sildenafil],2.26,–
